Measured values reported in PubChem BioAssay (NCI).
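Where inhibition never reached the appropriate level, the endpoint shown equals the highest concentration tested. Otherwise, values were interpolated linearly from a five-concentration, 48-hour dose response in 96-well plates. Here, GI50 denotes the concentration required for 50% inhibition of growth. TGI denotes the concentration required for complete inhibition of growth.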

Legend:
Assay in all cases: NCI anticancer screen, dose series, 48 h
HT29 colon = system: HT29 colon
SF-539 CNS = system: SF-539 CNS
IGROV1 ovarian = system: IGROV1 ovarian
HCT-116 colon = system: HCT-116 colon
HCC-2998 colon = system: HCC-2998 colon
UACC-257 melanoma = system: UACC-257 melanoma
UO-31 renal = system: UO-31 renal
LOX IMVI melanoma = system: LOX IMVI melanoma
CCRF-CEM leukemia = system: CCRF-CEM leukemia
SR leukemia = system: SR leukemia
RPMI-8226 leukemia = system: RPMI-8226 leukemia
MDA-MB-468 breast = system: MDA-MB-468 breast
UACC-62 melanoma = system: UACC-62 melanoma
OVCAR-4 ovarian = system: OVCAR-4 ovarian
NCI-H460 lung = system: NCI-H460 lung
MDA-MB-435 = system: MDA-MB-435
OVCAR-3 ovarian = system: OVCAR-3 ovarian
SNB-19 CNS = system: SNB-19 CNS
EKVX NSCLC = system: EKVX NSCLC
MDA-MB-231 breast = system: MDA-MB-231 breast
TK-10 renal = system: TK-10 renal
SN12C renal = system: SN12C renal
COLO 205 colon = system: COLO 205 colon
NCI/ADR-RES ovarian = system: NCI/ADR-RES ovarian
SK-MEL-2 melanoma = system: SK-MEL-2 melanoma
HOP-92 NSCLC = system: HOP-92 NSCLC
DU-145 prostate = system: DU-145 prostate
PC-3 prostate = system: PC-3 prostate
MCF7 breast = system: MCF7 breast
SF-268 CNS = system: SF-268 CNS
OVCAR-8 ovarian = system: OVCAR-8 ovarian
T-47D breast = system: T-47D breast
SK-MEL-28 melanoma = system: SK-MEL-28 melanoma
NCI-H226 lung = system: NCI-H226 lung
CAKI-1 renal = system: CAKI-1 renal
A549 NSCLC = system: A549 NSCLC
HOP-62 NSCLC = system: HOP-62 NSCLC
ACHN renal = system: ACHN renal
MALME-3M melanoma = system: MALME-3M melanoma
RXF 393 renal = system: RXF 393 renal
HCT-15 colon = system: HCT-15 colon
SK-MEL-5 melanoma = system: SK-MEL-5 melanoma
NCI-H522 lung = system: NCI-H522 lung
HS 578T breast = system: HS 578T breast
KM12 colon = system: KM12 colon
SF-295 CNS = system: SF-295 CNS
786-0 renal = system: 786-0 renal
MOLT-4 leukemia = system: MOLT-4 leukemia
OVCAR-5 ovarian = system: OVCAR-5 ovarian
U251 CNS = system: U251 CNS
A498 renal = system: A498 renal
SK-OV-3 ovarian = system: SK-OV-3 ovarian
M14 melanoma = system: M14 melanoma
SNB-75 CNS = system: SNB-75 CNS
K-562 leukemia = system: K-562 leukemia
NCI-H23 lung = system: NCI-H23 lung
BT-549 breast = system: BT-549 breast
SW-620 colon = system: SW-620 colon
HL-60(TB) leukemia = system: HL-60(TB) leukemia

## O=C(NO)c1ccc(CNC(=O)[C@H]2Cc3c([nH]c4ccccc34)[C@H](c3ccccc3)N2)cc1
HT29 colon
  GI50: 3.29 µM
  TGI: 18 µM
SF-539 CNS
  GI50: 3.73 µM
  TGI: > 23.7 µM
IGROV1 ovarian
  GI50: 3.71 µM
  TGI: 15.2 µM
HCT-116 colon
  GI50: 1.13 µM
  TGI: > 23.7 µM
HCC-2998 colon
  GI50: 2.9 µM
  TGI: 6.91 µM
UACC-257 melanoma
  GI50: 1.43 µM
  TGI: 15.9 µM
UO-31 renal
  GI50: 5.58 µM
  TGI: > 23.7 µM
LOX IMVI melanoma
  GI50: 3.35 µM
  TGI: 6.43 µM
CCRF-CEM leukemia
  GI50: 0.785 µM
  TGI: > 23.7 µM
SR leukemia
  GI50: 0.449 µM
  TGI: > 23.7 µM
RPMI-8226 leukemia
  GI50: 1.35 µM
  TGI: > 23.7 µM
MDA-MB-468 breast
  GI50: 0.507 µM
  TGI: 2.33 µM
UACC-62 melanoma
  GI50: 1.13 µM
  TGI: 4.64 µM
OVCAR-4 ovarian
  GI50: 8.3 µM
  TGI: > 23.7 µM
NCI-H460 lung
  GI50: 3.59 µM
  TGI: > 23.7 µM
MDA-MB-435
  GI50: 3.26 µM
  TGI: 13.5 µM
OVCAR-3 ovarian
  GI50: 2.51 µM
  TGI: 12.6 µM
SNB-19 CNS
  GI50: 5.19 µM
  TGI: > 23.7 µM
EKVX NSCLC
  GI50: 8.42 µM
  TGI: > 23.7 µM
MDA-MB-231 breast
  GI50: 3.53 µM
  TGI: 12.4 µM
TK-10 renal
  GI50: 2.88 µM
  TGI: 19.2 µM
SN12C renal
  GI50: 5.27 µM
  TGI: 23.5 µM
COLO 205 colon
  GI50: 2.36 µM
  TGI: 5.57 µM
NCI/ADR-RES ovarian
  GI50: 5.72 µM
  TGI: > 23.7 µM
SK-MEL-2 melanoma
  GI50: 3.66 µM
  TGI: 14.6 µM
HOP-92 NSCLC
  GI50: 1.59 µM
  TGI: 12.4 µM
DU-145 prostate
  GI50: 4.06 µM
  TGI: > 23.7 µM
PC-3 prostate
  GI50: 5.39 µM
  TGI: > 23.7 µM
MCF7 breast
  GI50: 3.59 µM
  TGI: > 23.7 µM
SF-268 CNS
  GI50: 5.5 µM
  TGI: > 23.7 µM
OVCAR-8 ovarian
  GI50: 1.43 µM
  TGI: > 23.7 µM
T-47D breast
  GI50: 1.03 µM
  TGI: 9.84 µM
SK-MEL-28 melanoma
  GI50: 3.13 µM
  TGI: 22 µM
NCI-H226 lung
  GI50: 2.7 µM
  TGI: > 23.7 µM
CAKI-1 renal
  GI50: 5.69 µM
  TGI: 16.6 µM
A549 NSCLC
  GI50: 6.77 µM
  TGI: > 23.7 µM
HOP-62 NSCLC
  GI50: 3.6 µM
  TGI: 13.1 µM
ACHN renal
  GI50: 5 µM
  TGI: 16.2 µM
MALME-3M melanoma
  GI50: 0.545 µM
  TGI: > 23.7 µM
RXF 393 renal
  GI50: 1.92 µM
  TGI: 6.54 µM
HCT-15 colon
  GI50: 11.8 µM
  TGI: > 23.7 µM
SK-MEL-5 melanoma
  GI50: 2.66 µM
  TGI: 5.93 µM
NCI-H522 lung
  GI50: 0.685 µM
  TGI: 5.64 µM
HS 578T breast
  GI50: 1.38 µM
  TGI: 21.8 µM
KM12 colon
  GI50: 5.01 µM
  TGI: > 23.7 µM
SF-295 CNS
  GI50: 3.34 µM
  TGI: 7.89 µM
786-0 renal
  GI50: 9.15 µM
  TGI: > 23.7 µM
MOLT-4 leukemia
  GI50: 0.763 µM
  TGI: > 23.7 µM
OVCAR-5 ovarian
  GI50: 1.42 µM
  TGI: 6.84 µM
U251 CNS
  GI50: 2.78 µM
  TGI: 12.9 µM
A498 renal
  GI50: 2.46 µM
  TGI: 11.7 µM
SK-OV-3 ovarian
  GI50: 3.28 µM
  TGI: 11.3 µM
M14 melanoma
  GI50: 5.93 µM
  TGI: > 23.7 µM
SNB-75 CNS
  GI50: 1.99 µM
  TGI: > 23.7 µM
K-562 leukemia
  GI50: 1.38 µM
  TGI: > 23.7 µM
NCI-H23 lung
  GI50: 4.71 µM
  TGI: 18.3 µM
BT-549 breast
  GI50: 14.2 µM
  TGI: > 23.7 µM
SW-620 colon
  GI50: 2.31 µM
  TGI: 7.76 µM
HL-60(TB) leukemia
  GI50: 3 µM
  TGI: > 23.7 µM

## COc1ccc2[nH]c(O)c(N=Nc3nc(-c4ccccc4)cs3)c2c1
HT29 colon
  GI50: 7.21 µM
  TGI: 41.1 µM
SF-539 CNS
  GI50: 2.65 µM
  TGI: 8.49 µM
IGROV1 ovarian
  GI50: 5.04 µM
  TGI: 31.9 µM
HCT-116 colon
  GI50: 2.26 µM
  TGI: 5.34 µM
HCC-2998 colon
  GI50: 6.93 µM
  TGI: > 100 µM
UACC-257 melanoma
  GI50: 17.4 µM
  TGI: > 100 µM
UO-31 renal
  GI50: 1.38 µM
  TGI: 6.4 µM
LOX IMVI melanoma
  GI50: 3.08 µM
  TGI: 10.5 µM
CCRF-CEM leukemia
  GI50: 6.48 µM
  TGI: > 100 µM
SR leukemia
  GI50: 4.55 µM
  TGI: > 100 µM
RPMI-8226 leukemia
  GI50: 14.4 µM
  TGI: > 100 µM
MDA-MB-468 breast
  GI50: 1.71 µM
  TGI: 5.35 µM
UACC-62 melanoma
  GI50: 2.54 µM
  TGI: 38.7 µM
OVCAR-4 ovarian
  GI50: 1.98 µM
  TGI: 5.07 µM
NCI-H460 lung
  GI50: 3.43 µM
  TGI: 14.8 µM
MDA-MB-435
  GI50: 4.96 µM
  TGI: > 100 µM
OVCAR-3 ovarian
  GI50: 3.06 µM
  TGI: 12.5 µM
SNB-19 CNS
  GI50: 3.09 µM
  TGI: 10.4 µM
EKVX NSCLC
  GI50: 2.62 µM
  TGI: 20.2 µM
MDA-MB-231 breast
  GI50: 2.66 µM
  TGI: 12.7 µM
TK-10 renal
  GI50: 6.47 µM
  TGI: 16.5 µM
SN12C renal
  GI50: 2.5 µM
  TGI: 17.7 µM
COLO 205 colon
  GI50: 4.87 µM
  TGI: 29.5 µM
NCI/ADR-RES ovarian
  GI50: 2.24 µM
  TGI: 5.15 µM
SK-MEL-2 melanoma
  GI50: 13.3 µM
  TGI: 59.4 µM
HOP-92 NSCLC
  GI50: 1.06 µM
  TGI: 4.14 µM
DU-145 prostate
  GI50: 4.31 µM
  TGI: 17.5 µM
PC-3 prostate
  GI50: 4.57 µM
  TGI: > 100 µM
MCF7 breast
  GI50: 3.66 µM
  TGI: 42.5 µM
SF-268 CNS
  GI50: 3.1 µM
  TGI: 11.8 µM
OVCAR-8 ovarian
  GI50: 3.11 µM
  TGI: 10.5 µM
T-47D breast
  GI50: 2.78 µM
  TGI: 15.8 µM
SK-MEL-28 melanoma
  GI50: 4.83 µM
  TGI: > 100 µM
NCI-H226 lung
  GI50: 2.65 µM
  TGI: 13.4 µM
CAKI-1 renal
  GI50: 3.85 µM
  TGI: 16.7 µM
A549 NSCLC
  GI50: 2.76 µM
  TGI: 11.3 µM
HOP-62 NSCLC
  GI50: 5.26 µM
  TGI: 30.3 µM
ACHN renal
  GI50: 2.89 µM
  TGI: 10.2 µM
MALME-3M melanoma
  GI50: 2.51 µM
  TGI: 13.1 µM
RXF 393 renal
  GI50: 3.05 µM
  TGI: 8.74 µM
HCT-15 colon
  GI50: 3.26 µM
  TGI: 17.3 µM
SK-MEL-5 melanoma
  GI50: 11.5 µM
  TGI: 48.3 µM
NCI-H522 lung
  GI50: 2.29 µM
  TGI: 9.63 µM
HS 578T breast
  GI50: 4.27 µM
  TGI: 42.9 µM
KM12 colon
  GI50: 5.55 µM
  TGI: > 100 µM
SF-295 CNS
  GI50: 3.35 µM
  TGI: 12.6 µM
786-0 renal
  GI50: 1.96 µM
  TGI: 3.69 µM
MOLT-4 leukemia
  GI50: 7.27 µM
  TGI: > 100 µM
OVCAR-5 ovarian
  GI50: 5.44 µM
  TGI: 36.7 µM
U251 CNS
  GI50: 2.62 µM
  TGI: 6.97 µM
A498 renal
  GI50: 2.67 µM
  TGI: 5.96 µM
SK-OV-3 ovarian
  GI50: 3.52 µM
  TGI: 22.2 µM
M14 melanoma
  GI50: 5.8 µM
  TGI: 46.7 µM
SNB-75 CNS
  GI50: 2.64 µM
  TGI: 16.2 µM
K-562 leukemia
  GI50: 4.62 µM
  TGI: > 100 µM
NCI-H23 lung
  GI50: 3.56 µM
  TGI: 19.5 µM
BT-549 breast
  GI50: 4.43 µM
  TGI: 21.8 µM
SW-620 colon
  GI50: 3.7 µM
  TGI: 16.6 µM
HL-60(TB) leukemia
  GI50: 41.1 µM
  TGI: > 100 µM
